Assay results published in US20180099931A1 (AbbVie S.à.r.l., priority 2016, published 2018).
Like-named read-outs stand apart in the source and are kept apart here.

Molecular target: T1, F508delCFTR (Homo sapiens, UniProt P13569, DEL508-508)
T1 construct: expressed in transfected cells; host or cells: CFBE41o- human lung-derived epithelial cells (CFBE4lo-F508delCFTR-HRP), doxycycline-inducible
Assay: Cell Surface Expression-Horse Radish Peroxidase (CSE-HRP) Assay;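 for Maximum % activity (with co-corrector): co-corrector and positive control are both the same reference corrector at 2 µM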;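 for Maximum % activity (without co-corrector): percent of the 2 µM on-plate positive control corrector response above DMSO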
Assay type: cell-based
Details: for Maximum % activity (with co-corrector) / Emax: maximum at any tested concentration, normalized to on-plate positive control; for Emax: read-out: Maximum % activity (without co-corrector)

[1] = test compound without co-corrector, read-out: EC50 (without co-corrector)
[2] = with co-corrector (2 μM of 3-[(2R,4R)-4-({[1-(2,2-difluoro-1,3-benzodioxol-5-yl)cyclopropyl]carbonyl}amino)-7-methoxy-3,4-dihydro-2H-chromen-2-yl]benzoic acid), read-out: EC50 (with co-corrector)
[3] = test compound without co-corrector
[4] = with co-corrector (2 μM of 3-[(2R,4R)-4-({[1-(2,2-difluoro-1,3-benzodioxol-5-yl)cyclopropyl]carbonyl}amino)-7-methoxy-3,4-dihydro-2H-chromen-2-yl]benzoic acid)
[5] = CSE-HRP, test compound without co-corrector, read-out: EC50 (without co-corrector)
[6] = CSE-HRP, with co-corrector (2 μM of 3-[(2R,4R)-4-({[1-(2,2-difluoro-1,3-benzodioxol-5-yl)cyclopropyl]carbonyl}amino)-7-methoxy-3,4-dihydro-2H-chromen-2-yl]benzoic acid), read-out: EC50 (with co-corrector)
[7] = CSE-HRP, with co-corrector (2 μM)

T1 sequence (P13569 with tags, fused parts or gaps DEL508-508): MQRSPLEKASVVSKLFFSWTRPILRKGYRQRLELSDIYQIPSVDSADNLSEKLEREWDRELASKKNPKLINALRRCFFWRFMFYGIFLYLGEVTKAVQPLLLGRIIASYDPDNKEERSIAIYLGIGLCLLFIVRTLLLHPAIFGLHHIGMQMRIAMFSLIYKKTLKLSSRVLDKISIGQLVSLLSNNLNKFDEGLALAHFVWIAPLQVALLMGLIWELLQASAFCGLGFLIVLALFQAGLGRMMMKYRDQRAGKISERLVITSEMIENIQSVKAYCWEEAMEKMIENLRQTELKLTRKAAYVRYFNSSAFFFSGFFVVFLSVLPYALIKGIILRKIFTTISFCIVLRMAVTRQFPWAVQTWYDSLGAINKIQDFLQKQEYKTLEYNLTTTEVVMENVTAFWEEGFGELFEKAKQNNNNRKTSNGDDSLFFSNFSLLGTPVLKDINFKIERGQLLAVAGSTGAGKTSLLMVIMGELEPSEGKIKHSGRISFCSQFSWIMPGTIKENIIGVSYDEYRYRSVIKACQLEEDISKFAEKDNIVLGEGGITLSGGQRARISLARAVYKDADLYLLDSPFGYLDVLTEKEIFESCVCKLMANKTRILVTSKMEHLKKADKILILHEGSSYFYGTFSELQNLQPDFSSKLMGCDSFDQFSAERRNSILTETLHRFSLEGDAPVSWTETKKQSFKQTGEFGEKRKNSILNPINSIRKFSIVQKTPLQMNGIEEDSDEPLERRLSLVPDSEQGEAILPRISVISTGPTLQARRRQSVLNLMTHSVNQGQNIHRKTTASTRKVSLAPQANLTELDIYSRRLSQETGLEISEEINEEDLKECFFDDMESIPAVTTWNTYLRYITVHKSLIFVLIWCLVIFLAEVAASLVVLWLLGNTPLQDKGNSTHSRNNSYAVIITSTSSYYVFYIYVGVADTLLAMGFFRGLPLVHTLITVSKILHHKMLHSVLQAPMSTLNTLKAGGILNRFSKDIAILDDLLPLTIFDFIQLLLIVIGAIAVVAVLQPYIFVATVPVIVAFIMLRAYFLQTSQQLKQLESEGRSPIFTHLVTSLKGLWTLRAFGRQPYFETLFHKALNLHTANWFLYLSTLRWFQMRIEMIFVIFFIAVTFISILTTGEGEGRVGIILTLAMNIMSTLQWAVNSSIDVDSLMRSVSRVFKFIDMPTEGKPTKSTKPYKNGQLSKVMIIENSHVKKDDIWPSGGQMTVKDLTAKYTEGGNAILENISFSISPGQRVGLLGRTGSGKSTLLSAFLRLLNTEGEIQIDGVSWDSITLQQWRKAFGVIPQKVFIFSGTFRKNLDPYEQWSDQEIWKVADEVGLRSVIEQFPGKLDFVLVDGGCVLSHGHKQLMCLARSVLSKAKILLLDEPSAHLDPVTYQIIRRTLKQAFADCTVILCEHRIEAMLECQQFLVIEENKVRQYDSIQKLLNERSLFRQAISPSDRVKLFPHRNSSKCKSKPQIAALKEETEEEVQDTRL

SMILES | EC50 [1] [nM] | EC50 [2] [nM] | Maximum % activity (with co-corrector) (with co-corrector (2 μM)) | Emax (without co-corrector) [%] | Emax [3] [%] | Maximum % activity (with co-corrector) [4] | EC50 [5] [nM] | EC50 [6] [nM] | Maximum % activity (with co-corrector) [7] | Emax (CSE-HRP, without co-corrector) [%] | Maximum % activity (with co-corrector) (CSE-HRP, with co-corrector (2 μM), 2 µM)
COc1ncc(C(C)(C)C)cc1CN[C@H]1[C@H](C(C)(C)C)[C@@H](C(=O)O)N(C(=O)C2CCCCC2)[C@H]1c1cccnc1OC [Example I-135] | 1000 to 10000 | 1000 to 10000 | +++ (≥350) | > 200 |  |  |  |  |  |  | 
COc1ccc(C(F)(F)F)cc1CN[C@H]1[C@H](C(C)(C)C)[C@@H](C(=O)O)N(C(=O)[C@H](OC)c2ccccc2)[C@H]1c1ccccc1 [Example I-20] | 1000 to 10000 | < 1000 | +++ (≥350) | > 200 |  |  |  |  |  |  | 
COc1cc(C(F)(F)F)ccc1CN[C@H]1[C@H](C(C)(C)C)[C@@H](C(=O)O)N(C(=O)OCC(C)C)[C@H]1c1ccccc1 [II-161] |  |  |  |  |  |  | 1000 to 10000 | < 1000 | +++ (≥350) | 100 to 200 | 
CC(C)Oc1ccccc1CN[C@@H]1[C@@H](C(C)(C)C)[C@H](C(=O)O)N(C(=O)C2CCCCC2)[C@@H]1c1ccccc1 (racemic) [II-4] |  |  |  |  |  |  | 1000 to 10000 | 1000 to 10000 | +++ (≥350) | 100 to 200 | 
COc1c(CN[C@@H]2[C@@H](C(C)(C)C)[C@H](C(=O)O)N(C(=O)C3CCCCC3)[C@@H]2c2ccccc2)c(C)nn1C (racemic) [Example I-4] | > 10000 | 1000 to 10000 | + (<150) | < 100 |  |  |  |  |  |  | 
COc1ccc(C(C)(C)C)cc1CN[C@H]1[C@H](C(C)(C)C)[C@@H](C(=O)O)N(C(=O)c2cc(C#N)ccc2OC)[C@H]1c1ccccc1 [Example I-90] | 1000 to 10000 | 1000 to 10000 | +++ (≥350) | 100 to 200 |  |  |  |  |  |  | 
CC(C)(C)[C@@H]1[C@@H](NCc2ccccc2C(F)(F)F)[C@@H](c2ccccc2)N(C(=O)C2CCCCC2)[C@H]1C(=O)O (racemic) [II-31] |  |  |  |  |  |  | 1000 to 10000 | 1000 to 10000 | +++ (≥350) | < 100 | 
COc1cc(C(F)(F)F)ccc1CN[C@@H]1[C@@H](C(C)(C)C)[C@H](C(=O)O)N(C(=O)C2CCCCO2)[C@@H]1c1ccccc1N(C)C (mixture of isomers) [Example I-25] | 1000 to 10000 | < 1000 | +++ (≥350) | > 200 |  |  |  |  |  |  | 
CC(C)OC(=O)N1[C@H](C(=O)O)[C@@H](C(C)(C)C)[C@H](NCC2CCCN(c3ccc(C(F)(F)F)cc3)C2)[C@@H]1c1ccccc1 (stereo partly drawn) [Example I-268] |  |  |  |  |  |  | 1000 to 10000 | 1000 to 10000 | +++ (≥350) | < 100 | 
COc1ncc(C2CC2)cc1CN[C@H]1[C@H](C(C)(C)C)[C@@H](C(=O)O)N(C(=O)C2CCCCC2)[C@H]1c1ccccc1C [Example 105, (2S,3S,4S,5S)-3-tert-butyl-1-(cyclohexanecarbonyl)-4-{[(5-cyclopropyl-2-methoxypyridin-3-yl)methyl]amino}-5-(2-methylphenyl)pyrrolidine-2-carboxylic acid] | 1000 to 10000 | < 1000 | +++ (≥350) | > 200 |  |  |  |  |  |  | 
COc1cc(C(F)(F)F)ccc1CN[C@@H]1[C@@H](C(C)(C)C)[C@H](C(=O)O)N(C(=O)C2C3COCC32)[C@@H]1c1ccccc1N(C)C (mixture of isomers) [Example I-24] | 1000 to 10000 | 1000 to 10000 | +++ (≥350) | > 200 |  |  |  |  |  |  | 
Cc1cc(C(F)(F)F)nc(N[C@@H]2[C@@H](C(C)(C)C)[C@H](C(=O)O)N(C(=O)OC(C)C)[C@@H]2c2ccccc2)n1 (racemic) [Example I-13] | 1000 to 10000 | 1000 to 10000 | ++ (≥150 and <350) | < 100 |  |  |  |  |  |  | 

Results, then the compound that gave them:

EC50 [1] [nM] | EC50 [2] [nM] | Maximum % activity (with co-corrector) (with co-corrector (2 μM)) | Emax (without co-corrector) [%] | Emax [3] [%] | Maximum % activity (with co-corrector) [4] | EC50 [5] [nM] | EC50 [6] [nM] | Maximum % activity (with co-corrector) [7] | Emax (CSE-HRP, without co-corrector) [%] | Maximum % activity (with co-corrector) (CSE-HRP, with co-corrector (2 μM), 2 µM) | SMILES
1000 to 10000 | 1000 to 10000 |  |  | 100 to 200 | +++ (≥350) |  |  |  |  |  | COc1nc(C(C)(C)C)ccc1CN[C@H]1[C@H](C(C)(C)C)[C@@H](C(=O)O)N(C(=O)C2CCC(C)(C)C2)[C@H]1c1ccccc1 (stereo partly drawn) [II-428]
1000 to 10000 | 1000 to 10000 |  |  | 100 to 200 | +++ (≥350) |  |  |  |  |  | CC(C)OC(=O)N1[C@H](C(=O)O)[C@@H](C(C)(C)C)[C@H](NCC2CCCN(C(=O)OCc3ccccc3)C2)[C@@H]1c1ccccc1 (stereo partly drawn) [II-583]
 |  |  |  |  |  | 1000 to 10000 | 1000 to 10000 |  | < 100 | ++ (≥150 and <350) | COc1ccc(C(F)(F)F)cc1CN[C@H]1[C@H](C(C)(C)C)[C@@H](C(=O)O)N(C(=O)C2Cc3ccccc3O2)[C@H]1c1ccccc1 (single isomer, unassigned) [II-265]
< 1000 | < 1000 |  |  | 100 to 200 | +++ (≥350) |  |  |  |  |  | COc1ncc(-c2ccccc2)cc1CN[C@H]1[C@H](C(C)(C)C)[C@@H](C(=O)O)N(C(=O)C2CCCCC2)[C@H]1c1ccccc1F [II-423]
> 10000 | 1000 to 10000 | ++ (≥150 and <350) |  | < 100 |  |  |  |  |  |  | CC(C)(C)[C@H]1[C@H](NCc2ccc3c(c2)CCCO3)[C@H](c2ccccc2)N(C(=O)C2CCCCC2)[C@@H]1C(=O)O [III-120]
 |  |  |  |  |  | 1000 to 10000 | 1000 to 10000 | +++ (≥350) | 100 to 200 |  | COc1ccc(C(C)(C)C)cc1CN[C@H]1[C@H](C(C)(C)C)[C@@H](C(=O)O)N(C(=O)C2Cc3ccccc3O2)[C@H]1c1ccccc1 (single isomer, unassigned) [II-272]
1000 to 10000 | 1000 to 10000 |  |  | < 100 | ++ (≥150 and <350) |  |  |  |  |  | Cc1cc(C(F)(F)F)cc(N[C@@H]2[C@@H](C(C)(C)C)[C@H](C(=O)NS(=O)(=O)C3(C)CC3)N(C(=O)C3CCCCC3)[C@@H]2c2ccccc2)n1 (racemic) [III-51]
1000 to 10000 | 1000 to 10000 | ++ (≥150 and <350) |  | < 100 |  |  |  |  |  |  | COc1ccc(C(C)(C)C)cc1CN[C@H]1[C@H](C(C)(C)C)[C@@H](C(=O)O)N(C(=O)C2CCc3cc(F)ccc3O2)[C@H]1c1cccnc1N(C)C (stereo partly drawn) [III-210]
1000 to 10000 | 1000 to 10000 |  |  | 100 to 200 | +++ (≥350) |  |  |  |  |  | COc1ccc(C(C)(C)C)nc1CN[C@H]1[C@H](C(C)(C)C)[C@@H](C(=O)O)N(C(=O)C2CCCCC2)[C@H]1c1ccccc1 [II-373]
1000 to 10000 | 1000 to 10000 |  |  | > 200 | +++ (≥350) |  |  |  |  |  | COc1ccc(C(C)(C)C)cc1CN[C@H]1[C@H](C(C)(C)C)[C@@H](C(=O)O)N(C(=O)[C@@H](C)[C@H]2CCCCO2)[C@H]1c1ccccc1 (relative stereo) [II-455]
1000 to 10000 | 1000 to 10000 |  |  | 100 to 200 | +++ (≥350) |  |  |  |  |  | COc1cc(C(F)(F)F)ccc1CN[C@H]1[C@H](C(C)(C)C)[C@@H](C(=O)O)N(C(=O)[C@@H]2CCC[C@H](O)C2)[C@H]1c1ccccc1 [II-538]
1000 to 10000 | 1000 to 10000 |  |  | < 100 | ++ (≥150 and <350) |  |  |  |  |  | COc1ccc(C(C)(C)C)cc1CN[C@H]1[C@H](C(C)(C)C)[C@@H](C(=O)O)N(C(=O)C2Cc3ccccc3O2)[C@H]1c1cccnc1N(C)C (single isomer, unassigned) [II-421]
 |  |  |  |  |  | 1000 to 10000 | < 1000 | +++ (≥350) | > 200 |  | COc1ccc(C(C)(C)C)cc1CN[C@H]1[C@H](C(C)(C)C)[C@@H](C(=O)O)N(C(=O)c2ccc(Oc3ccccn3)cc2)[C@H]1c1ccccc1 [II-224]
1000 to 10000 | 1000 to 10000 |  |  | 100 to 200 | +++ (≥350) |  |  |  |  |  | COc1ccc(C(C)(C)C)cc1CN[C@H]1[C@H](C(C)(C)C)[C@@H](C(=O)O)N(C(=O)C2CCC(F)(F)CC2)[C@H]1c1cccnc1N(C)C [II-468]
1000 to 10000 | 1000 to 10000 |  |  | > 200 | +++ (≥350) |  |  |  |  |  | COc1ncc(C(F)(F)F)cc1CN[C@H]1[C@H](C(C)(C)C)[C@@H](C(=O)O)N(C(=O)C2CCCCC2)[C@H]1c1ccccc1C(C)C [II-545]
1000 to 10000 | 1000 to 10000 |  |  | < 100 | +++ (≥350) |  |  |  |  |  | COc1ccc2c(c1)[C@@](C)(C(=O)N1[C@H](C(=O)O)[C@@H](C(C)(C)C)[C@H](NCc3cc(C(C)(C)C)ccc3OC)[C@@H]1c1cccnc1OC)CC2 [II-569]
> 10000 | > 10000 |  |  | < 100 | + (<150) |  |  |  |  |  | CC(C)(C)[C@@H]1[C@@H](NCc2ccccc2C#N)[C@@H](c2ccccc2)N(C(=O)C2CCCCC2)[C@H]1C(=O)O (racemic) [III-83]
> 10000 | > 10000 | + (<150) |  | < 100 |  |  |  |  |  |  | COc1ncc(C(F)(F)F)cc1N[C@H]1[C@H](C(C)(C)C)[C@@H](C(=O)O)N(C(=O)[C@H]2CCCCO2)[C@H]1c1cccnc1N(C)C [III-213]
